Test system: E. coli (Escherichia coli)
Experiment: Antibacterial test, MIC by standard dilution method (O.D. 600)
Assay type: cell-based
Settings: FIG. 4
Procedure: The minimum inhibitory concentration (MIC) value of a carbon quantum dot was determined by a standard dilution method in a variety of tested bacterial strains, including E. coli (Escherichia coli), P. aeruginosa (Pseudomonas aeruginosa), S. enteritidis (Salmonella enterica), S. aureus (Staphylococcus aureus), MRSA (Methicillin-resistant Staphylococcus aureus, a multi-drug resistant Staphylococcus), S. iniae (Streptococcus iniae), and C. albicans (Candida albicans).
A single colony of each strain was removed from the culture medium, and inoculated in each suitable growth medium (10 mL). The cultured bacteria were grown at 37° C. with shaking (200 rpm), until the absorbance at 600 nm (O.D. 600) reaches 1.0 (optical path length: 1.0 cm). Each cell mixture was centrifuged at 1.0 mL (RCF 3,000×g, […], 25° C.), and washed twice with 5 mM sodium phosphate buffer (pH 7.4) before further use. The carbon quantum dots were mixed with a 10^5 CFU/mL bacterial solution, and the final concentration of the reaction bacterial solution was 10^4 CFU/mL. After reaction for 3 hours, each suitable growth medium was added. After 12 hours of incubation in the incubator at the culture temperature of each strain, the absorbance at 600 nm (O.D. 600) was measured.

NCCCCCCN [C, 1,6-diamino-hexane]
antibacterial ability (comparison in words): worst antibacterial effect
